Measured values: article PMC7111291 (European Journal of Medicinal Chemistry, 2020)
Read-outs that look alike come from different tables or passages of the source.

How the values were obtained:
[1] = system: wild type HIV-1 (VSVG/HIV-1wt); experiment: microbe, parasite or virus in culture; format: cell-based; conditions: for EC50: read-out: EC50±SD
VSVG/HIV-1RT-Y188L = format: cell-based; conditions: for EC50: read-out: EC50±SD
HIV-1 RT Ribonuclease H = HIV-1 RT Ribonuclease H (Human immunodeficiency virus type 1 group M subtype B, UniProt P04585); experiment: Ribonuclease H activity detection; format: biochemical
HEK 293T cells = format: cell-based, human; conditions: read-out: CC50±SD, 48 h
VSVG/HIV-1RT-K103N,G190A = format: cell-based
VSVG/HIV-1RT-K103N,V108I = format: cell-based
VSVG/HIV-1RT-Y181C = format: cell-based
VSVG/HIV-1RT-K103N = format: cell-based
[2] = Human immunodeficiency virus 1, HEK-293T

Structure (SMILES) | EC50 [1, 2] [nM] | EC50 [1] [nM] | IC50 (HIV-1 RT Ribonuclease H) [nM] | other results
Cc1ccnc2c1NC(=O)c1cccnc1N2C1CC1 [NVP, nevirapine, reference compound] | 30 ± 3 | 20 |  | EC50 (VSVG/HIV-1RT-Y188L): > 100000 nM
CCCOn1cc(CC(=O)Nc2ccccc2Cl)c2ccccc21 [Compound 6d, N-(2-Chlorophenyl)-2-(1-propoxy-1H-indol-3-yl)acetamide] |  | 490 | > 100000 | EC50 (VSVG/HIV-1RT-Y188L): > 10000 nM
CCCOn1cc(C(O)C(=O)Nc2ccncc2Cl)c2ccccc21 (stereo not shown) [Compound 15, N-(3-Chloropyridin-4-yl)-2-hydroxy-2-(1-propoxy-1H-indol-3-yl)acetamide] |  | 2010 ± 60 |  | CC50 (HEK 293T cells): 19000 ± 2310 nM
CCCCOn1cc(CC(=O)Nc2ccncc2Cl)c2ccccc21 [Compound 10i, 2-(1-Butoxy-1H-indol-3-yl)-N-(3-chloropyridin-4-yl)acetamide] | 60 ± 0.5 |  | > 100000 | 
CCCOn1cc(CC(=O)Nc2ccncc2Cl)c2ccccc21 [Compound 10f, N-(3-Chloropyridin-4-yl)-2-(1-propoxy-1H-indol-3-yl)acetamide] |  | 70 | > 100000 | 
O=C1Nc2ccc(Cl)cc2[C@@](C#CC2CC2)(C(F)(F)F)O1 [EFV, efavirenz] | 0.7 ± 0.2 | 1 |  | Mean change (fold) in EC50 compared to wild type (VSVG/HIV-1RT-K103N,G190A): 0.18 ± 0.01 (183.0) fold; Mean change (fold) in EC50 compared to wild type (VSVG/HIV-1RT-K103N,V108I): 0.06 ± 0.01 (55.5) fold; Mean change (fold) in EC50 compared to wild type (VSVG/HIV-1RT-Y181C): 0.002 ± 0.0001 (1.7) fold; Mean change (fold) in EC50 compared to wild type (VSVG/HIV-1RT-Y188L): 0.12 ± 0.03 (124.3) fold; Mean change (fold) in EC50 compared to wild type (VSVG/HIV-1RT-K103N): 0.03 ± 0.003 (27.0) fold
CCCOn1cc(C(=O)C(=O)Nc2ccncc2Cl)c2ccccc21 [Compound 14, N-(3-Chloropyridin-4-yl)-2-oxo-2-(1-propoxy-1H-indol-3-yl)acetamide] |  | > 10000 |  | infectivity when treated with the compound (percentage in parentheses) [1]: >10; (131.6 ± 0.60%); CC50 (HEK 293T cells): 20900 ± 5110 nM
